A short description of series [1]: Biodistribution of [111In]In-radiocomplexes in healthy mice. Type of series: in vivo. The procedure: We performed a biodistribution study of the four [^111In]In-radiocomplexes in healthy mice to determine the clearance rate from systemic blood circulation and the tissue/organ distribution over time. […] The urinary tract was identified as the main excretory pathway since the highest % I.D./g values were found in the kidneys for all the radiocomplexes, associated to rapid radioactivity excretion both at 15 min and 1 h p.i. […] page 9: from whole animal body. Blood samples were taken by cardiac puncture at sacrifice. […] The animals were kept under […] volume of approximate 390 ± 190 mm3. […] […] carried out on groups of 8 mice (n = 4). […] The animals were weighed and dissected.

A short description of series [2]: In vivo stability: HPLC analysis of urine of injected mice. The following applies: mouse urine, 1 h p.i.
Procedure: To assess the in vivo stability of the radiocomplexes, samples of blood and urine were collected from the mice injected with the compounds and analyzed by HPLC.
(§2) Blood samples from mice injected with the tested radiocomplexes, collected at sacrifice time, were
(§3) centrifuged, the serum separated and treated with ethanol (1:2 proportion) to precipitate the proteins
(§4) and the supernatant was analyzed by HPLC for stability evaluation. The urine samples were centrifuged
(§5) at 3000 rpm for 10 min and the supernatant was also analyzed by HPLC.
For series [3] the following is noted: cell culture media, 37 °C, up to 24 hours.
Procedure: The in vitro stability of the radiocomplexes was studied by ITLC and HPLC analysis of aliquots of the
Culture Media and Human Serum a suitable volume of the radioactive complexes was diluted into 4
times the volume of the desired medium. The mixtures were incubated at 37 °C and aliquots were taken
at the different time points and analysed by HPLC and ITLC. The radiocomplexes incubated in Human
Serum were first treated with a four-times bigger volume of cold ethanol to induce protein precipitation.
After centrifugation during 10 minutes at 5000 rpm, the supernatants were separated from the pellets
as §2, §3, §4, §5
The in vitro stability of the radioconjugate [111In]-DOTA-Tz-TCO-PEG4-AR was evaluated by
incubation at 37 °C in cell culture media (CCM), in human serum (HS) and in PBS during 24 hours.
The next series in a line: in vivo. The following applies: male, NodCB17 SCID, mouse, iv, total radioactivity. An excerpt: from whole animal body. Blood samples were taken by cardiac puncture at sacrifice. Tissue samples of the main organs were then dissected, weighted and counted in a gamma counter (Berthold).
Biodistribution results were expressed as percentage of the injected dose per gram tissue (%I.D./g) in the form of an average with standard deviation (%ID/g; mean ± standard deviation (SD).
Biodistribution in PC3 bearing mice
Male, 5-6 weeks old NodCB17 SCID mice were obtained from Janvier Lab., France. Mice were housed under pathogen-free conditions with food and water ad libitum, and a 12-12 hour light-dark cycle.
Veterinarian staff and investigators observed the mice daily to ensure animal welfare and determine if human endpoints (e.g., hunched and ruffled appearance, apathy, ulceration, severe weight loss, tumour burden) were reached. The mice were subcutaneously injected in the shoulder with 200 µL bolus containing a suspension of […] freshly harvested human prostatic cell line PC3 in Matrigel™ Basement Membrane Matrix (BD Sciences) under anaesthesia with 2% isoflurane. The animals were kept under pathogen-free condition and experiments were performed 2–3 weeks later when a tumour reached a volume of approximate 390 ± 190 mm3. Animals were allocated into treatment groups using a complete […]
The examination of physiological distribution for [90Y]Y-DOTA-Tz were carried out on 4 mice (n = 4). For the control bolus, 0.061 nmol, 0.1 mL, 7.5 µCi of [90Y]Y-DOTA-Tz was intravenously injected by tail vein. The examination of physiological distribution for [90Y]Y-DOTA-Tz-TCO-PEG4-AR were carried out on groups of 8 mice (n = 4). For the control bolus, 0.061 nmo l, 0.1 mL, 7.5 µCi of 90Y-DOTA-Tz TCO-PEG4-AR was intravenously injected by tail vein. At appropriate time points (15 min, 1h or 2h after-injection), the animals were euthanized, tissues of interest were dissected, weighted, and their radioactivity was measured using NaI gamma counter supplied with adapter for the whole-body […]
Biodistribution of 111In-DOTA-Tz-TCO-PEG4-AR was performed by intravenous injection of 100 µL (50 – 75 µCi) of the preparation into mice (n =4) via the tail vein. Immediately after injection, radioactive dosage administered into each animal was measured in a dose calibrator (Capintec CRC25R). For the in vivo click chemistry studies in the same PC3 xenografts (n=3), a bolus of 1 nmol of TCO-PEG4-AR, dissolved in 0.1 mL of saline, was injected in the tail vein, and after 4h the [111In]In-DOTA-Tz (0.1mL, 50 – 75 µCi µCi). After 1 h of administration of the radioactive preparations, the mice groups were sacrificed by cervical dislocation and the radioactivity in the sacrificed animal was measured. The difference between the radioactivity in the injected and the sacrificed animal was assumed to be due to total excretion. The animals were weighed and dissected. Then, tissues of interest were removed, weighed and counted in a γ-counter (Berthold, LB211, Germany).
For all the performed biodistribution studies, selected organs and tissues were assayed for their radioactivity and weighted. The physiological distribution was then calculated and expressed in terms of the percentage of the administrated radioactivity found in each of the selected organs or tissues per gram (%ID/g) in the form of an average with standard deviation (%ID/g; mean ± standard deviation
(1 picture or pasted object on this page, not shown here)

Series [4] in a line: In vitro stability of [111In]In-radiocomplexes in cell culture media, human serum and PBS at 37 °C (HPLC). Type of series: in vitro ADME. The protocol:
(§1) Given the limited effect of the pegylated linker on the plasmatic half-life, we focused our successive in vitro stability studies and lipophilicity measurements on the two non-pegylated derivatives [^111In]In-DOTA-Tz and [^111In]In-DOTAGA-Tz. The lipophilicity was evaluated by determination of their partition coefficient log Po/w using the shake-flask method. […] In HS the stability was very good up to 2 h of incubation, but after 4 h of incubation, the degradation started to be quite important with 50 and 30% of the compound degraded for [^111In]In-DOTA-Tz and [^111In]In-DOTAGA-Tz, respectively. […] Taken together, excellent stability of the two [^111In]In-radiocomplexes was observed both in CCM and HS at 37°C for incubation times up to 2 h.
[111In]In-Radiocomplexes: In vitro and in vivo stability
radiolabelled compound dissolved in different media. For the evaluation of the stability in PBS, Cell
times the volume of the desired medium.
The radiocomplexes incubated in Human
The urine samples were centrifuged
during six days by ITLC analysis.

A short description of series [5]: Lipophilicity, octanol-water partition coefficient by shake-flask method. Type of series: physicochemical. The settings on record: 1-octanol / PBS pH 7.4. The protocol: as §1, with “h. […]” for “h.”
Lipophilicity Determination
After phase separation, aliquots

Where two headings read alike, the source gives them in different places.

Consider `O=C([O-])CN1CCN(CC(=O)[O-])CCN(CC(=O)NCCOCCOCCOCCOCCOCCOCCOCCOCCOCCOCCOCCNC(=O)CCCC(=O)NCc2ccc(-c3nncnn3)cc2)CCN(CC(=O)[O-])CC1.[111In+3]` [[111In]In-DOTA-PEG-Tz], for which, in series [1] (15 min p.i.), the “Biodistribution: Blood” value was 3.1 ± 0.4 % I.D./g, the “Biodistribution: Bone” value was determined as 0.78 ± 0.08 % I.D./g, the “Biodistribution: Heart” value is 1.0 ± 0.2 % I.D./g and the “Biodistribution: Intestine” value was 0.32 ± 0.05 % I.D./g. In series [1] (15 min p.i.), the “Biodistribution: Kidney” value amounted to 5.8 ± 1.3 % I.D./g, the “Biodistribution: Liver” value was determined as 1.1 ± 0.2 % I.D./g, the “Biodistribution: Lung” value was determined as 1.6 ± 0.3 % I.D./g and the “Biodistribution: Muscle” value was determined as 0.9 ± 0.2 % I.D./g. In series [1] (15 min p.i.), the “Biodistribution: Pancreas” value is 0.53 ± 0.07 % I.D./g, the “Biodistribution: Spleen” value came out at 0.66 ± 0.28 % I.D./g, the “Biodistribution: Stomach” value turned out to be 0.5 ± 0.3 % I.D./g and the Excretion was 65.3 ± 5.4 % I.D. In series [1] (1 h p.i.), the “Biodistribution: Blood” value is given as 0.44 ± 0.07 % I.D./g, the “Biodistribution: Bone” value is given as 0.11 ± 0.01 % I.D./g, the “Biodistribution: Heart” value came out at 0.15 ± 0.08 % I.D./g and the “Biodistribution: Intestine” value is 0.05 ± 0.01 % I.D./g. Besides, in series [1] (1 h p.i.), the “Biodistribution: Kidney” value is given as 1.9 ± 0.3 % I.D./g, the “Biodistribution: Liver” value was determined as 0.70 ± 0.30 % I.D./g, the “Biodistribution: Lung” value amounted to 0.36 ± 0.04 % I.D./g and the “Biodistribution: Muscle” value is on record as 0.10 ± 0.02 % I.D./g. Besides, in series [1] (1 h p.i.), the “Biodistribution: Pancreas” value was 0.09 ± 0.01 % I.D./g, the “Biodistribution: Spleen” value was 0.18 ± 0.04 % I.D./g, the “Biodistribution: Stomach” value is 0.09 ± 0.02 % I.D./g and the Excretion was found to be 93.6 ± 0.8 % I.D. Moreover, the Excretion result in series [1] (1 h p.i., listed as [^111In]In-DOTA-PEG-Tz) is “above 90 % I.D”. Further, in series [2], the “in vivo stability / metabolization (urine HPLC)” value is given as “overall low degree of metabolization”.

On to `CC(C)C[C@H](NC(=O)C[C@H](O)[C@H](CC(C)C)NC(=O)[C@H](Cc1c[nH]cn1)NC(=O)CNC(=O)[C@@H](NC(=O)[C@H](C)NC(=O)[C@H](Cc1c[nH]c2ccccc12)NC(=O)[C@H](CCC(N)=O)NC(=O)[C@@H](Cc1ccccc1)NC(=O)CCOCCOCCOCCOCCNC(=O)OC1CCCC2=CNN=C(c3ccc(CNC(=O)CN4CCN(CC(=O)O)CCN(CC(=O)O)CCN(CC(=O)O)CC4)cc3)C2CC1)C(C)C)C(N)=O` (some centres unmarked) [[111In]In-DOTA-Tz-TCO-PEG4-AR, metal not drawn], for which, in series [3], the “stability in CCM” value was “excellent stabilities in CCM, with no degradation issues”. In addition, the tissue uptake at 1 h in the series “in vivo” (blood) was found to be 1.2 ± 0.4 %ID/g; in the series “in vivo” (bone), 0.5 ± 0.1 %ID/g; in “in vivo” (heart) it was 0.5 ± 0.3 %ID/g; in “in vivo” (intestine), 1.09 ± 0.08 %ID/g; in the series “in vivo” (kidney) it was 3.7 ± 1.1 %ID/g; in the series “in vivo” (liver) it was 0.74 ± 0.06 %ID/g. The tissue uptake at 1 h stood at 0.7 ± 0.2 %ID/g in “in vivo” (lung); 0.3 ± 0.11 %ID/g in the series “in vivo” (muscle); 0.4 ± 0.1 %ID/g in the series “in vivo” (spleen); 0.9 ± 0.2 %ID/g in the series “in vivo” (stomach); 2.5 ± 0.7 %ID/g in “in vivo” (tumour).

As to `O=C([O-])CN1CCN(CC(=O)[O-])CCN(C(CCC(=O)NCc2ccc(-c3nncnn3)cc2)C(=O)[O-])CCN(CC(=O)[O-])CC1.[111In+3]` (centres unmarked) [[111In]In-DOTAGA-Tz], in series [4] (PBS, 24 h at 37°C), the “stability in PBS” value is greater than 85%. Also, the “level of degradation in CCM” value in series [4] (cell culture media, 37°C, after 24 h) is reported as 70%. The “stability in CCM” value in series [4] (cell culture media, 37°C, first 4 h of incubation) is “very good stability”. For the same compound, the “stability in HS” value in series [4] (human serum, 37°C, 24 h of incubation) was “almost completely degraded”. The “compound degraded in HS” value in series [4] (human serum, 37°C, after 4 h of incubation) stood at 30%. Moreover, the “stability in HS” value in series [4] (human serum, 37°C, up to 2 h of incubation) is “very good”. Further, the “log Po/w” value in series [5] was −3.44 ± 0.29. Further, in series [1] (15 min p.i.), the “Biodistribution: Blood” value was determined as 3.2 ± 0.7 % I.D./g, the “Biodistribution: Bone” value worked out at 1.2 ± 0.2 % I.D./g, the “Biodistribution: Heart” value is listed as 0.9 ± 0.2 % I.D./g and the “Biodistribution: Intestine” value is given as 0.4 ± 0.1 % I.D./g. Further, in series [1] (15 min p.i.), the “Biodistribution: Kidney” value came out at 7.2 ± 0.4 % I.D./g, the “Biodistribution: Liver” value is 1.6 ± 0.4 % I.D./g, the “Biodistribution: Lung” value was 1.9 ± 0.4 % I.D./g and the “Biodistribution: Muscle” value is listed as 0.9 ± 0.2 % I.D./g. Besides, in series [1] (15 min p.i.), the “Biodistribution: Pancreas” value amounted to 0.6 ± 0.1 % I.D./g, the “Biodistribution: Spleen” value was 0.6 ± 0.1 % I.D./g, the “Biodistribution: Stomach” value was found to be 0.6 ± 0.3 % I.D./g and the Excretion amounted to 62.7 ± 1.5 % I.D. Moreover, in series [1] (1 h p.i.), the “Biodistribution: Blood” value is recorded as 1.1 ± 0.3 % I.D./g, the “Biodistribution: Bone” value was determined as 0.5 ± 0.1 % I.D./g, the “Biodistribution: Heart” value was found to be 0.4 ± 0.1 % I.D./g and the “Biodistribution: Intestine” value turned out to be 0.26 ± 0.09 % I.D./g. Besides, in series [1] (1 h p.i.), the “Biodistribution: Kidney” value is given as 3.6 ± 1.0 % I.D./g, the “Biodistribution: Liver” value is on record as 1.0 ± 0.3 % I.D./g, the “Biodistribution: Lung” value is 0.8 ± 0.2 % I.D./g and the “Biodistribution: Muscle” value is 0.27 ± 0.07 % I.D./g. In series [1] (1 h p.i.), the “Biodistribution: Pancreas” value was determined as 0.3 ± 0.1 % I.D./g, the “Biodistribution: Spleen” value was 0.3 ± 0.1 % I.D./g, the “Biodistribution: Stomach” value came out at 0.3 ± 0.2 % I.D./g and the Excretion turned out to be 81.5 ± 5.1 % I.D. For the same compound, the “Biodistribution: Kidney” value in series [1] (1 h p.i., listed as [^111In]In-DOTAGA-Tz) is given as 3.6 ± 1 % I.D./g. The “in vivo stability / metabolization (urine HPLC)” value in series [2] is “overall low degree of metabolization”.

The record behind these values is PMC8225959, “Clickable Radiocomplexes With Trivalent Radiometals for Cancer Theranostics: In vitro and in vivo Studies” (Frontiers in Medicine, 2021).
